1 compound from PMC9750872, “Ras-mutant cancers are sensitive to small molecule inhibition of V-type ATPases in mice” (Nature biotechnology, 2022) can be followed below.

The test system of one experiment is A549 (KRASG12S). As to the kind of experiment: Cell viability screen, CellTiter-Glo, 72 h. It is filed as cell-based. The note with it: Homo sapiens, ATP content/viability. Here is the method: (§1) Figure 1: Optimization of Potency and Drug Properties of Small Molecule Inhibitors of Ras- and Raf-mutant Cells using Viability Screens. (A) Cell viability screen of ~300 small molecules in A549 (KRASG12S), LOX IMVI (BRAFV600E), and MelJuso (HRASG13D and NRASQ61L). Cells were treated with vehicle DMSO or increasing concentrations of small molecules in triplicate for 72 h and ATP content/viability was measured using CellTiter-Glo Luminescent Cell Viability Assay. The results shown for all cell viability figures are representative of at least two independent experiments. […] (C) Evolution of the Structure Activity Relationship (SAR) and IC50s of the first (68) and last (249C | lead due to drug-like properties) compounds in the screen. (D) 249C sensitivity for a panel of 53 cancer cell lines (including lung, pancreatic, breast, ovarian, hematological/liver, prostate, colorectal cancers, glioma and melanoma). […] (F) Quantitative whole proteome analysis of the effects of small molecule treatment by mass spectrometry. A549 cells were treated with DMSO or 68 (30 μM), 226C (1μM) or 249C (1μM) for 48 h prior to analysis of proteomes with TMT labeling followed by quantification relative to the DMSO control. […]

A further experiment deals with LOX IMVI (BRAFV600E). As to the kind of experiment: Cell viability screen, CellTiter-Glo, 72 h. Particulars: Homo sapiens, ATP content/viability. It is filed as cell-based. How it is done:
as §1
Background: Cellular ATP, detected with luciferase, serves as a proxy for viable cell number.

In experiment [1] the target is T1, human H subunit (ATP6V1H) (Homo sapiens, UniProt Q9UI12).
T1 construct: GST (cleaved yes); host or cells: Rosetta2(DE3)pLysS (E. coli)
The experiment can be described thus: Bio-layer interferometry (BLI). It is filed as binding. The note with it: biotinylated-249C on streptavidin sensors. An excerpt:
Figure 4. […] (A) Model of the reversible assembly of V-ATPase. Cytosolic V1 subunits are depicted in blue and membrane Vo subunits in purple. Upon V-ATPase assembly, ATP is hydrolyzed to ADP accompanied by proton (H^+) pumping and luminal acidification (decrease in pH) (Created with BioRender). […] The amount of subunit B2 present in the membrane fraction indicates the amount of assembled V-ATPase. A representative Western blot is presented. […] Cells were mechanically lysed, and a fraction containing FITC-Dextran-loaded lysosomes was isolated by sedimentation centrifugation. Fluorescence was measured over time to assess pH-dependent quenching following addition of 1 mM magnesium-ATP (predetermined). […] Representative of 5 individual experiments with n = 3 for each is presented (mean ± SD) (D) Mammalian V-ATPase activity measured in the absence and presence of 1 μM 249C and 1 μM BafA1. Data shown are mean ± SD; n = 3. Bio-layer inferometry (BLI) of (E) the entire mammalian V-ATPase complex (association protein concentrations: 30, 60, 120, 240 nM) and (F) the individual human H subunit (ATP6V1H) (association protein concentrations: 16,800 and 21,000 nM) against biotinylated-249C loaded onto streptavidin sensor tips. A reference sensor was subtracted from the signal to blank the system. The ForteBio Octet® Software on the BLI system was used to calculate Kd s. […]
On the technique in general: Biolayer interferometry detects binding as a change in optical thickness at a sensor tip.

The next experiment concerns MEFs KRAS G12D. The experiment can be described thus: Cell proliferation of Ras-less MEFs expressing human KRAS/BRAF. Particulars: Mus musculus.
Experiment [2] addresses T2, mammalian V-ATPase purified from pig kidneys (Sus scrofa, UniProt Q9TVC1).
T2 construct: the entire V-ATPase complex (800 kDa) was purified as described previously from porcine kidneys; from tissue; host or cells: porcine kidney
The experiment can be described thus: Biochemical V-ATPase (ATP hydrolysis) assay. Particulars: concentrations as low as 1 μM. How it is done: V-ATPase was purified as described previously from yeast[82] using the detergent dodecylmaltoside and porcine kidney[83] using the detergent glycol-diosgenin. ATPase assays with purified V-ATPase were performed as described previously. 249C (mammalian: 0.1, 1, 10, 100 μM and yeast: 5, 10 and 100 μM) or BafA1 (1 μM) were added to the reaction and compared with a negative control to which only DMSO was added. Enzyme-coupled ATPase biochemical activity assays were performed in a 96-well plate as described previously.

For orientation: IC50 means the concentration needed to halve the response being measured. By Kd is commonly meant the free concentration of one partner at which half of the binding sites on the other are occupied at equilibrium, for simple one-to-one binding.

T1 sequence (Q9UI12 whole entry): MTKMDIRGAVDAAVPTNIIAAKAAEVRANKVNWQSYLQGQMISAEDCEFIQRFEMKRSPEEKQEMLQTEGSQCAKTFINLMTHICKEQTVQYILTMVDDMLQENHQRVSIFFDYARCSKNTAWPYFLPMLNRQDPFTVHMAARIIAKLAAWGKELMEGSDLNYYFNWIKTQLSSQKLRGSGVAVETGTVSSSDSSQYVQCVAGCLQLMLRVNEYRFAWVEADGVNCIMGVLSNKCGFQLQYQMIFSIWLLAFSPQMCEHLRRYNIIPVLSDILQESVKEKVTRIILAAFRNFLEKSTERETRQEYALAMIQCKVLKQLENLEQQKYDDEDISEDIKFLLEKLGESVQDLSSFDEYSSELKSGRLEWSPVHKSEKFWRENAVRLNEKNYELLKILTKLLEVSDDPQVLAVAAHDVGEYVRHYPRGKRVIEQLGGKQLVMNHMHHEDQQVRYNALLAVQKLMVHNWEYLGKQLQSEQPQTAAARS
T2 sequence (Q9TVC1 whole entry): as the sequence (Q9UI12 whole entry) above, with A44S, C85S, M100T, R116K, C117R, P124S, P135L, S173A, M309L counted along it
T2 sequence (Q29048 whole entry partner): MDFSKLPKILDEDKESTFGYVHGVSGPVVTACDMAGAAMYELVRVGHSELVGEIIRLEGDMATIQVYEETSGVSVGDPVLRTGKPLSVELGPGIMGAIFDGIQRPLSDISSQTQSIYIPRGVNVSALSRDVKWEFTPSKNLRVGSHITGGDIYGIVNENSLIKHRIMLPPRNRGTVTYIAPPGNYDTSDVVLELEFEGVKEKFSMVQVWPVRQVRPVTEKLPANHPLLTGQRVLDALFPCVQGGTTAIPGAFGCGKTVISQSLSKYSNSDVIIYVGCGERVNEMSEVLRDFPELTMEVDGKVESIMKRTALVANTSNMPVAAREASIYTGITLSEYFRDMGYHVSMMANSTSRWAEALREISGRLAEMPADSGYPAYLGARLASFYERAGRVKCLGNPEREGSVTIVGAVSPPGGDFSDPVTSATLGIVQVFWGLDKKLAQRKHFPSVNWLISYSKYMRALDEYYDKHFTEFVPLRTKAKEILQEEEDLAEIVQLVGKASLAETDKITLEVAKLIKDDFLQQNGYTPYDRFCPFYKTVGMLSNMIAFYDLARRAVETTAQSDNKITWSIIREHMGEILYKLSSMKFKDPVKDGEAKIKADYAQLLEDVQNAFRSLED
Description for MEFs KRAS G12D: Logarithmically growing cells were plated in antibiotic-free medium supplemented with 2% fetal bovine serum at a density of 5,000 cells per well. The next day, cells were treated in triplicates with increasing doses of in-house small molecule inhibitor drugs and a DMSO vehicle control for 3 days and subsequently assessed for cell viability by measurement of ATP with CellTiter-Glo Luminescent Cell Viability Assay (Promega). Signal intensity was read on a Glomax™ 96 Microplate Luminometer (Promega) with GLOMAX software (version 1.9.3) and percent cell survival was calculated based on the reading of vehicle control cells set as 100% using Excel (2012) and GraphPad Prism (version 6)Each compound was tested a minimum of 2 times with n = 3. All cell proliferation assays (cancer cell lines or MEFs) were done in a similar way.

Regarding `CN1CCOC(CNC(=O)C2(C)C(c3ccc(Cl)o3)C(c3ccc(F)cc3F)=NN2c2ccc(F)cc2F)C1` (centres unmarked) [Compound 249C], the half-maximal inhibitory concentration (IC50) in the experiment with A549 (KRASG12S) worked out at 0.073 µM; in the experiment with LOX IMVI (BRAFV600E) it was 0.06 µM; in the experiment with MEFs KRAS G12D, 0.3 µM. In addition, binding in experiment [1] was characterised by a dissociation constant (Kd) of 0.501 µM. The “ATP hydrolysis of intact mammalian V-ATPase” value in experiment [2] was “blocked ATP hydrolysis”.
